In patent US8992891B2, “Therapeutic approaches for treating CMT and related disorders” (Pharnext, priority 2007, dated 2015):

Experiments:
PMP22 protein = PMP22 protein expression analysis by flow cytometry (FACS) in Schwann cells; assay type: cell-based, rat; parameters: key to Protein (PMP22 expression decrease): +: significantly decreases PMP22 levels compared to control; details: for Protein (PMP22 expression decrease): rat primary Schwann cells, FACS, 24 hrs
Procedure: One day later, Schwann cells are stimulated by combinations of drugs or drugs alone during 24 hrs (3 wells/condition). The preparation of each compound is performed just prior to its addition to the cell culture medium. Drugs are added to a defined medium composed of DMEM-F12, with 1% Insulin-Transferrin-Selenium-X (ITS, Invitrogen #51300), 16 μg/ml of Putrescine, 0.02 μg/ml of corticosterone, 10 nM Progesterone and 50 μg/ml of gentamicin. The absence of Forskolin during drug stimulation avoids adenylate cyclase saturation. 8 hrs, 24 hrs and 48 hrs after drugs incubation, supernatants are recovered, centrifuged and frozen. SC are detached with trypsin-EDTA. As soon as the majority of cells are in suspension, the trypsin is neutralised using DMEM with 10% FCS. Supernatants with cells are recovered and centrifuged. The pellets of cells are transferred in micro tubes, washed in PBS once and fixed with a specific solution (AbCys #Reagent A BUF09B). 10 minutes later, cells are rinsed once with PBS and kept at 4° C. Five days after cell fixation, all cell preparations with different incubation times are labelled using the following protocol. […] Cells are then centrifuged at 7000 rpm for 5 minutes and cell pellets are rinsed once in PBS. A secondary antibody is added, coupled to Alexa Fluor 488 (goat anti-rabbit IgG, Molecular Probes #A11008, 1/100), for one hour at room temperature. Cells are then centrifuged at 7000 rpm for 5 minutes and cell pellets are rinsed once in PBS. The labelling is increased adding a tertiary antibody coupled to Alexa Fluor 488 (chicken anti-goat IgG, Molecular Probes #A21467, 1/100) for one hour incubation, at room temperature. Cells are then rinsed once in PBS. Control without any antibody (unlabelled cells) is performed to determine the level of autofluorescence and adapted the sensitivity of the photomultiplicators. Control with both secondary and tertiary antibodies but without primary antibody, is performed to assess non specific binding of antibodies. Data acquisition and analysis are performed with a FACS Array cytometer and FACS Array software (Becton Dickinson) on 5000 cells. Forward Scatter (FSC) correlated with cell volume (size) and Side Scatter (SSC) depending on inner complexity of cells (granularity) are analysed. For expression of PMP22, analysis is performed within the total cells and percent of positive cells is calculated. Positive cells are cells with fluorescence intensity higher than the control with secondary antibody. We tested the ability of some drugs to inhibit PMP22 protein expression (FACS analysis). […] The results of the action of some individual drugs on the protein level of PMP22 are also shown on table 1 above.

[1] = tested on: hemizygous PMP22 transgenic rat (CMT rat); assay: Bar test in CMT transgenic rat model; assay type: in vivo; details: CMT rats; for bar test performance compared with the placebo group: 16 weeks of treatment; for improvement of bar test motor performances versus placebo: after 8 weeks of the force-feeding; for bar test performances throughout the treatment procedure: chronic treatment
Source text: Four weeks-old rats transgenic PMP22 rats have been used throughout of the study. Aspects of the study design (randomization, statistics for multiple comparisons, sample size etc.) have been checked to be in line with the recommendations provided in 4th issue of 43rd volume of ILAR Journal (2002), that provides reviews in the field of experimental design and statistics in biomedical research.
The experimental groups are formed with young rats of both genders separately. The rats are assigned to the groups following randomization schedule based on the body weight. In some experiments the randomization is based on the performances of the rats in the bar test.
Both genders are represented by separate control groups that are numerically equal or bigger than the treatment groups.
The animals are weighted twice a week in order to adjust the doses to growing body weight. If the osmotic pump is chosen for the treatment administration, the doses of the drug are calculated on the basis of the estimated mean body weight of the animals expected for their age over the period of the pump duration (6 weeks). The pumps are re-implanted if necessary, with the appropriated aesthesia protocol.
Each three or four weeks the animals are subjected to a behavioural test. Each test is conducted be the same investigator in the same room and at the same time of the day; this homogeneity is maintained throughout entire experiment. All treatments are blinded for the investigator. “Bar test” and “Grip strength” has been mainly used to access the performance throughout study. The schedule of the bar test may change as the animal growth (in order to avoid the bias due to the learning, for example).
The Bar Test evaluates rats' ability to hold on a fix rod. […] The rat is placed on its four paws on the middle of the rod (diameter: 2.5 cm; length: 50 cm; 30 cm above the table). Trials are performed consecutively; the number and the duration of trials in our experiments have been depending on batches of the animals. This variability in the testing have been introduced in order to determine the schedule appropriated to the best detection of the motor deficiency in the CMT rats in the course of the experiments.
Performance indices are recorded on each session: • The number of trials needed to hold for 60 sec (or 30 sec for batch 1, session 1 and 2) on the rod. • The time spent on the bar (i.e. the fall latency) in each trial and the average on the session. In the experimental procedures where the session ends after the rat has stayed for a cut-off time, i.e. 30 or 60 s, on the bar, a performance of the cut-off time (30 s or 60 s) is assigned to trials not completed (eg: for batch 8, for an animal which stays on the bar less than 10 sec on trials 1, 2 and 3, then for 60 sec on trials 4 and 5, 60 s is assigned to trials 6 to 10). • The number of falls.

[2] = tested on: hemizygous PMP22 transgenic rat (CMT rat); assay: Electrophysiological evaluation in CMT transgenic rats; assay type: in vivo; details: versus TG placebo group; for potential amplitude measured on the distal portion of the tail: CMT rats treated during 20 weeks
Source text: When appropriate, the rats are subjected to electrophysiological evaluation and histological measurement.

Row | SMILES | Protein (PMP22 expression decrease) (PMP22 protein) | first dose shown to be active, as fraction of the dose equivalent to dosage used in human for the canonical indications [1] | bar test performance compared with the placebo group [1] | improvement of bar test motor performances versus placebo [1] | bar test performances throughout the treatment procedure [1] | potential amplitude measured on the distal portion of the tail [2] | nerve conduction velocity (NCV) ([2]; CMT rats) | PMP22 protein expression, in words (PMP22 protein; Schwann cells in vitro, 24 hrs of incubation, compared to untreated controls)
1 | Cn1cc[nH]c1=S [Methimazole] | + | one fourth | significantly more performing | statistically significant | improved bar test performances | significantly improved | not significantly affected | 
2 | CC[C@@H]1C(=O)OC[C@@H]1Cc1cncn1C [Pilocarpine] | + | one half | significantly more performing | statistically significant | improved bar test performances | failed to reach statistical significance |  | decreases expression of the PMP22 protein
